Where two headings read alike, the source gives them in different places.
Experiments:
PDH = details: cited from earlier work
artificial NCM pathway = assay: Effect of inhibitors of natural synthesis pathways on the NCM in-vitro reaction system; type: biochemical
Method: It can be seen that the BauA has the best effect (FIG. 4A).
Natural PDH-ACC pathways are strictly regulated by many factors, such as high levels of intracellular ATP severely reducing the activity of PDH. When ADP/ATP=1, the activity of PDH is only 10% of that when ADP/ATP=20 (Hansford R G et al., 1976). Acetyl-CoA is also an inhibitor of PDH. When acetyl-CoA reaches 2 mM, the activity of PDH decreases by 70%. Long-chain fatty acyl-CoA, such as palmitoyl-CoA, is an inhibitor of ACC. […] palmitoyl-CoA can cause an 80% decrease in ACC activity. In the above NCM in-vitro reaction system, ATP and ADP (ATP+ADP=3.75 mM, ADP/ATP was +00, 10, 1, and 0.1, respectively) (FIG. 6A), acetyl-CoA (0, 0.5, 1, and 2 mM) (FIG. 6B), and palmitoyl-CoA ([…]) (FIG. 6C) were added, respectively.

[1] = system: E. coli MG1655 (DE3), pCDF-bauA-mcrC (strain L); type: cell-based; details: for biomass (OD550): NCM pathway overexpressed strain, MOPS medium with 200 mM succinic acid, 10 mM triacetic acid lactone, 300 mM NaCl or 480 mM sucrose; for increase of biomass of NCM strain compared to the ACC overexpressed strain / increase of biomass of NCM strain compared to the reference strain: same stressor concentrations as OD550 values
Method: (§1) Seed culture: Monoclones of the MG1655 (DE3), pCDF-bauA-mcrC (strain L), monoclones of the MG1655 (DE3), pCDF-duet (strain M) and monoclones of the MG1655 (DE3), pCDF-ACC (strain N) were selected respectively to be inoculated into a 15 mL test tube containing 5 mL of an MOPS medium, the medium containing spectinomycin (a final concentration of 50 μg/mL). Culture was carried out at 220 r and 37° C. until the OD550 is around 1.5 to 1.8 to be used as a seed solution.
(§2) Medium used for tolerance testing: IPTG (a final concentration of 0.1 mM) and spectinomycin (a final concentration of 50 μg/mL) were added into an MOPS medium (containing […] glucose); then, inhibitors were added, and the selected inhibitors and final concentrations thereof were formic acid (100 mM), acetic acid (50 mM), caproic acid (10 mM), lactic acid (500 mM), succinic acid (200 mM), glucose (100 μg/L), sucrose (480 mM), octanoic acid (10 mM), citric acid (200 mM), vanillic acid (3 μg/L), and triacetic acid lactone (TAL, 1.25 μg/L).
(§3) The seed solution was inoculated at a ratio of initial OD550=0.1 into a medium for tolerance test. After inoculation was completed, shaking for even mixing was carried out. 200 μL of the same was pipetted to a 96-well plate. By using a continuous kinetic assay method, OD550 was determined every 10 minutes with a microplate reader (Biotek), to determine the growth curve of the strain. The specific growth rate […] can be obtained by calculation of the exponential growth phase OD550T, cultivation time T, and initial OD550O.

[2] = system: E. coli MG1655 (DE3), pCDF-ACC (strain N); type: cell-based; details: ACC overexpressed strain; MOPS medium with 200 mM succinic acid, 10 mM triacetic acid lactone, 300 mM NaCl or 480 mM sucrose
Method: as §1, §2, §3

[3] = system: E. coli MG1655 (DE3), pCDF-duet (strain M); assay: Tolerance test, growth (OD550) of reference strain; type: cell-based; details: MOPS medium with 200 mM succinic acid, 10 mM triacetic acid lactone, 300 mM NaCl or 480 mM sucrose
Method: as §1, §2, §3

Row | SMILES | biomass (OD550) [1] | increase of biomass of NCM strain compared to the ACC overexpressed strain [1] | increase of biomass of NCM strain compared to the reference strain [1] | biomass (OD550) [2] | biomass (OD550) [3] | also measured
1 | Nc1ncnc2c1ncn2[C@@H]1O[C@H](COP(=O)(O)OP(=O)(O)OP(=O)(O)O)[C@@H](O)[C@H]1O [ATP] |  |  |  |  |  | decrease in PDH activity (PDH; ADP/ATP equal to 1): 90%; activity of PDH relative to that when ADP/ATP=20 (PDH; ADP/ATP=1): 10%; inhibitory effect on the artificial NCM pathway (artificial NCM pathway; ATP+ADP=3.75 mM, ADP/ATP +00, 10, 1 and 0.1): no inhibitory effect
2 | [Cl-].[Na+] [NaCl] | 0.76 | 214% | 29% | 0.24 | 0.59 | 
3 | CC(=O)SCCNC(=O)CCNC(=O)[C@H](O)C(C)(C)COP(=O)(O)OP(=O)(O)OC[C@H]1O[C@@H](n2cnc3c(N)ncnc32)[C@H](O)[C@@H]1OP(=O)(O)O [acetyl-CoA] |  |  |  |  |  | decrease in PDH activity (PDH; 2 mM acetyl-CoA): 70%; inhibitory effect on the artificial NCM pathway (artificial NCM pathway; acetyl-CoA 0, 0.5, 1 and 2 mM): no inhibitory effect
4 | CCCCCCCCCCCCCCCC(=O)SCCNC(=O)CCNC(=O)[C@H](O)C(C)(C)COP(=O)(O)OP(=O)(O)OC[C@H]1O[C@@H](n2cnc3c(N)ncnc32)[C@H](O)[C@@H]1OP(=O)(O)O [palmitoyl-CoA] |  |  |  |  |  | inhibitory effect on the artificial NCM pathway (artificial NCM pathway; palmitoyl-CoA 0, 0.24, 0.48, 0.96, 2.4 and 24 M): no inhibitory effect
5 | O=C(O)CCC(=O)O [succinic acid] | 0.60 |  | 100% | 0.20 | 0.30 | 
6 | OC[C@H]1O[C@@](CO)(O[C@H]2O[C@H](CO)[C@@H](O)[C@H](O)[C@H]2O)[C@@H](O)[C@@H]1O [sucrose] | 0.96 | 320% | 26% | 0.23 | 0.77 | 
7 | Cc1cc(O)cc(=O)o1 [triacetic acid lactone] | 0.81 | 180% | 30% | 0.29 | 0.62 | 

From patent US20250066826A1, “ARTIFICIAL SYNTHESIS METHOD FOR MALONYL-COENZYME A (COA) AND USE THEREOF” (SHANGHAI JIAO TONG UNIVERSITY, priority 2023, published 2025)
